In patent US20200024278A1, “COMPOSITION COMPRISING ANTIBIOTIC COMPOUND AND AN HETEROCYCLIC COMPOUND AND THEIR USE IN PREVENTING OR TREATING BACTERIAL INFECTIONS” (MUTABILIS, priority 2016, published 2020):

Assays:
Experiment in all cases: MIC, broth microdilution (CLSI), substance alone or ATB combined with compound at 4 or 8 μg/mL
[1] = test system: KPN 6299; assay type: cell-based, K. pneumoniae
Summary of the method: (§1)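 Each strain received 5·10^5 CFU/mL of log-phase cells in ca-MHB over DMSO-spotted compound or compound-antibiotic combinations. After 16-20 h at 35° C, growth was scored visually.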

[2] = test system: ECO UFR39; assay type: cell-based, E. coli; conditions: ECO UFR39
Summary of the method: as §1

[3] = test system: ECO 190317; assay type: cell-based, E. coli; conditions: ECO 190317
Summary of the method: as §1

[4] = test system: ECL P99; assay type: cell-based, E. cloacae; conditions: ECL P99
Summary of the method: as §1

[5] = test system: SPN 49619; assay type: cell-based, S. pneumoniae; conditions: SPN 49619
Summary of the method: as §1

[6] = test system: SAU 29213; assay type: cell-based, S. aureus; conditions: SAU 29213
Summary of the method: as §1

C[C@@H](O)[C@H]1C(=O)N2C(C(=O)O)=C(SCCN=CN)C[C@H]12 [IMI]
MIC ATB combined with Example 11 @8 μg/ml ([1]; with Example 11 at 8 μg/ml): <0.031 µg/mL
MIC ATB combined with Example 12 @8 μg/ml ([1]; with Example 12 at 8 μg/ml): <0.031 µg/mL
MIC ATB combined with Example 13 @8 μg/ml ([1]; with Example 13 at 8 μg/ml): 1 µg/mL
MIC ATB combined with Example 14 @8 μg/ml ([1]; with Example 14 at 8 μg/ml): <0.031 µg/mL
MIC ATB combined with Example 15 @4 μgml ([1]; with Example 15 at 4 μg/ml): <0.031 µg/mL
MIC ATB combined with Example 16 @4 μg/ml ([1]; with Example 16 at 4 μg/ml): <0.031 µg/mL
MIC ATB alone ([2]; antibiotic alone): 16 µg/mL
MIC ATB combined with Example 1 @8 μg/ml ([2]; with Example 1 @8 μg/ml): <0.031 µg/mL
MIC ATB combined with Example 1 @8 μg/ml ([2]; with Example 1 at 8 μg/ml): <0.031 µg/mL
MIC ATB combined with Example 7 @8 μgml ([2]; with Example 7 at 8 μg/ml): <0.031 µg/mL
MIC ATB combined with Example 9 @4 μg/ml ([2]; with Example 9 @4 μg/ml): <0.031 µg/mL
MIC ATB combined with Example 9 @4 μg/ml ([2]; with Example 9 at 4 μg/ml): <0.031 µg/mL
MIC ATB combined with Example 11 @8 μg/ml ([2]; with Example 11 at 8 μg/ml): <0.031 µg/mL
MIC ATB combined with Example 12 @8 μg/ml ([2]; with Example 12 at 8 μg/ml): <0.031 µg/mL
MIC ATB combined with Example 13 @8 μg/ml ([2]; with Example 13 at 8 μg/ml): <0.031 µg/mL
MIC ATB combined with Example 14 @8 μg/ml ([2]; with Example 14 at 8 μg/ml): <0.031 µg/mL
MIC ATB combined with Example 15 @4 μgml ([2]; with Example 15 at 4 μg/ml): <0.031 µg/mL
MIC ATB combined with Example 16 @4 μg/ml ([2]; with Example 16 at 4 μg/ml): <0.031 µg/mL
MIC ATB alone ([3]; antibiotic alone): 0.125 µg/mL
MIC ATB combined with Example 1 @8 μg/ml ([3]; with Example 1 @8 μg/ml): <0.031 µg/mL
MIC ATB combined with Example 1 @8 μg/ml ([3]; with Example 1 at 8 μg/ml): <0.031 µg/mL
MIC ATB combined with Example 7 @8 μgml ([3]; with Example 7 at 8 μg/ml): <0.031 µg/mL
MIC ATB combined with Example 9 @4 μg/ml ([3]; with Example 9 @4 μg/ml): <0.031 µg/mL
MIC ATB combined with Example 9 @4 μg/ml ([3]; with Example 9 at 4 μg/ml): <0.031 µg/mL
MIC ATB combined with Example 11 @8 μg/ml ([3]; with Example 11 at 8 μg/ml): <0.031 µg/mL
MIC ATB combined with Example 12 @8 μg/ml ([3]; with Example 12 at 8 μg/ml): <0.031 µg/mL
MIC ATB combined with Example 13 @8 μg/ml ([3]; with Example 13 at 8 μg/ml): <0.031 µg/mL
MIC ATB combined with Example 14 @8 μg/ml ([3]; with Example 14 at 8 μg/ml): <0.031 µg/mL
MIC ATB combined with Example 15 @4 μgml ([3]; with Example 15 at 4 μg/ml): <0.031 µg/mL
MIC ATB combined with Example 16 @4 μg/ml ([3]; with Example 16 at 4 μg/ml): <0.031 µg/mL
MIC ATB alone ([4]; antibiotic alone): 0.25 µg/mL
MIC ATB combined with Example 1 @8 μg/ml ([4]; with Example 1 @8 μg/ml): <0.031 µg/mL
MIC ATB combined with Example 1 @8 μg/ml ([4]; with Example 1 at 8 μg/ml): <0.031 µg/mL
MIC ATB combined with Example 7 @8 μgml ([4]; with Example 7 at 8 μg/ml): 1 µg/mL
MIC ATB combined with Example 9 @4 μg/ml ([4]; with Example 9 @4 μg/ml): <0.031 µg/mL
MIC ATB combined with Example 9 @4 μg/ml ([4]; with Example 9 at 4 μg/ml): <0.031 µg/mL
MIC ATB combined with Example 11 @8 μg/ml ([4]; with Example 11 at 8 μg/ml): <0.031 µg/mL
MIC ATB combined with Example 12 @8 μg/ml ([4]; with Example 12 at 8 μg/ml): <0.031 µg/mL
MIC ATB combined with Example 13 @8 μg/ml ([4]; with Example 13 at 8 μg/ml): 0.063 µg/mL
MIC ATB combined with Example 14 @8 μg/ml ([4]; with Example 14 at 8 μg/ml): <0.031 µg/mL
MIC ATB combined with Example 15 @4 μgml ([4]; with Example 15 at 4 μg/ml): <0.031 µg/mL
MIC ATB combined with Example 16 @4 μg/ml ([4]; with Example 16 at 4 μg/ml): <0.031 µg/mL
MIC ATB alone ([5]; antibiotic alone): 0.063 µg/mL
MIC ATB combined with Example 1 @8 μg/ml ([5]; with Example 1 @8 μg/ml): <=0.031 μg/mL
MIC ATB combined with Example 1 @8 μg/ml ([5]; with Example 1 at 8 μg/ml): <=0.031 μg/mL
MIC ATB combined with Example 7 @8 μgml ([5]; with Example 7 at 8 μg/ml): <=0.031 μg/mL
MIC ATB combined with Example 9 @4 μg/ml ([5]; with Example 9 @4 μg/ml): <0.031 µg/mL
MIC ATB combined with Example 9 @4 μg/ml ([5]; with Example 9 at 4 μg/ml): <0.031 µg/mL
MIC ATB combined with Example 11 @8 μg/ml ([5]; with Example 11 at 8 μg/ml): <=0.031 μg/mL
MIC ATB combined with Example 12 @8 μg/ml ([5]; with Example 12 at 8 μg/ml): <0.031 µg/mL
MIC ATB combined with Example 13 @8 μg/ml ([5]; with Example 13 at 8 μg/ml): <=0.031 μg/mL
MIC ATB combined with Example 14 @8 μg/ml ([5]; with Example 14 at 8 μg/ml): <0.031 µg/mL
MIC ATB combined with Example 15 @4 μgml ([5]; with Example 15 at 4 μg/ml): <0.031 µg/mL
MIC ATB combined with Example 16 @4 μg/ml ([5]; with Example 16 at 4 μg/ml): <0.031 µg/mL
MIC ATB alone ([6]; antibiotic alone): 0.016 µg/mL
MIC ATB combined with Example 1 @8 μg/ml ([6]; with Example 1 @8 μg/ml): <=0.031 μg/mL
MIC ATB combined with Example 1 @8 μg/ml ([6]; with Example 1 at 8 μg/ml): <=0.031 μg/mL
MIC ATB combined with Example 7 @8 μgml ([6]; with Example 7 at 8 μg/ml): 0.25 µg/mL
MIC ATB combined with Example 9 @4 μg/ml ([6]; with Example 9 @4 μg/ml): <0.031 µg/mL
MIC ATB combined with Example 9 @4 μg/ml ([6]; with Example 9 at 4 μg/ml): <0.031 µg/mL
MIC ATB combined with Example 11 @8 μg/ml ([6]; with Example 11 at 8 μg/ml): <0.031 µg/mL
MIC ATB combined with Example 12 @8 μg/ml ([6]; with Example 12 at 8 μg/ml): <0.031 µg/mL
MIC ATB combined with Example 13 @8 μg/ml ([6]; with Example 13 at 8 μg/ml): <=0.031 μg/mL
MIC ATB combined with Example 14 @8 μg/ml ([6]; with Example 14 at 8 μg/ml): <0.031 µg/mL
MIC ATB combined with Example 15 @4 μgml ([6]; with Example 15 at 4 μg/ml): <0.031 µg/mL
MIC ATB combined with Example 16 @4 μg/ml ([6]; with Example 16 at 4 μg/ml): <0.031 µg/mL
